The text below walks through data of ChEMBL document CHEMBL3988442, “University of Dundee, Small-Polar-MMV Screening Library” (2021).

This test deals with Schistosoma mansoni. In words: High throughput screening of compounds against Schistosoma mansoni motility. More on the design: dose or concentration left out as unconfirmed. It is filed as functional.
Take `CCc1noc(C(C)N(C)CC(=O)Nc2c(C)cccc2C)n1` (centres undefined): the “Percent Effect” value is reported as -71%.

For the compound `CCc1cc(=O)[nH]c2nnc(SCC(=O)OC)n12`, the “Percent Effect” value is -72.76%. Consider `O=C(CCCc1cn[nH]c1)N1C[C@@H](CN2CCOCC2)[C@@H](CO)C1`, for which the “Percent Effect” value is recorded as -60.63%.

Consider `COCCN(Cc1ccc(F)cc1Cl)C(=O)c1cccc[n+]1[O-]`, for which the “Percent Effect” value is recorded as -17.57%. For `Cc1nn(C)c(N(C)C)c1CNCC(O)c1ccccc1` (centres undefined) the value was -48.71%. As for `CCc1cnc2c(c1NCc1ccncc1)c(=O)n(C)c(=O)n2C`, the “Percent Effect” value is given as -33.12%. Turning to `O=S(=O)(c1ccccc1)N1CCN(CCn2ccnc2)CC1`, the “Percent Effect” value was -51.46%.

For the compound `CCC(CC)c1cc(C(=O)N2CCCC(n3cncn3)C2)on1` (centres undefined), the “Percent Effect” value is listed as 1.073%. As to `CCCc1nnsc1C(=O)NCC1CCN(S(C)(=O)=O)CC1`, the “Percent Effect” value is reported as -25.98%. In the case of `O=C(Nc1ccnc(OC2CCOC2)c1)C1CCC1` (centres undefined) it was -37.1%; in that of `Cc1cccc(N2CCC(NC(=O)CCCc3cccs3)CC2)n1`, -13.77%.

`CC(C)(C)NC(=O)C1CSCN1S(=O)(=O)c1cccc(F)c1` (centres undefined): the “Percent Effect” value is -27.85%. In the case of `Cc1cnc(C(=O)N(CCN(C)C)Cc2ccc(Cl)cc2)cn1` it was 17.37%. For `Cc1ccsc1CN(Cc1ccccn1)CC(C)C` the value was 6.222%; for `CN1CCCN(C(=O)c2ccc3c(c2)nc(N2CCOCC2)n3C)CC1`, -26.36%. Regarding `N#Cc1c(F)cccc1N1CCC(NS(=O)(=O)c2cccs2)CC1`, the “Percent Effect” value came to 28.82%. For `O=C(CCc1cscn1)NS(=O)(=O)c1ccc2ccccc2c1` the value was 22.96%.

With `CC1CCN(Cc2cnc(S(=O)(=O)CC3CC3)n2CC2CCCO2)CC1` (centres undefined), the “Percent Effect” value was -34.33%. For `CN(Cc1ncc[nH]1)S(=O)(=O)c1cccc(C(=O)N2CCOCC2)c1`, the “Percent Effect” value is -64.53%. Regarding `CCN(CC)C(=O)c1ccc(-c2ccsc2)nc1C`, the “Percent Effect” value is on record as -45.64%. For `CNC(=O)CSc1cnn(CC(=O)Nc2cccc(Cl)c2C)c(=O)c1Cl` the value was -12.29%; for `Cc1ccc(C(=O)NC(CN2CCCC2=O)c2ccccc2)c(=O)[nH]1` (centres undefined), -58.7%.

Consider `COCCCC1CCCN(C(=O)CCc2cc(O)no2)C1` (centres undefined), for which the “Percent Effect” value came out at 4.573%.

Consider `CSCC(CCO)NC(=O)Nc1cc(C)ccc1C` (centres undefined), for which the “Percent Effect” value is on record as -11.31%. With `COc1cccc(N2CCN(Cc3ncc[nH]3)CC2=O)c1`, the “Percent Effect” value is reported as -64.93%.

`CCc1ccc(C(=O)Nc2ccc(CC3CC(=O)NC3=O)cc2)cc1` (centres undefined): the “Percent Effect” value was -47.76%. Consider `CN(C)C(=O)N1CCn2nc(CNC(=O)CCC(F)(F)F)cc2C1`, for which the “Percent Effect” value amounted to 2%. For `CC(C)(C(=O)NCC1CC1)c1ccccc1F` the value was 9.48%; for `Cn1cnnc1S(=O)(=O)C1CCN(S(=O)(=O)c2c(Cl)cccc2Cl)CC1`, -2.116%; for `Cc1cc(C)n(CC(=O)N2CCC(c3nc(C)no3)CC2)n1`, -18.96%. In the case of `CCc1noc(C(C)N(C)CC(=O)Nc2cccc(C)n2)n1` (centres undefined) it was 0.2571%; in that of `CC(CN1CCOCC1)NCC1CCN(c2cnn(C)c(=O)c2)CC1` (centres undefined), 33.93%. For `CC(Cn1cccn1)NC(=O)Nc1ccc(F)cc1` (centres undefined) the value was -15.2%; for `CC(=O)N1CCC(Oc2ccc(C#N)cn2)CC1`, -36.18%.

`COc1ccccc1OCc1cc(C(=O)N2CC=CC2C(C)C)n[nH]1` (centres undefined): the “Percent Effect” value is -26.69%. For `CC(C)=CCN1C(=O)[C@H]2CC[C@@H]1CN(Cc1cccnc1N)C2` the value was -5.593%; for `CSCC(CCO)NC(=O)Nc1cccc(Br)c1` (centres undefined), -21.75%. In the case of `CC(C)NC(=O)[C@@H]1C[C@H](N)CN1C(=O)c1cc2ccccc2[nH]c1=O` it was -4.577%; in that of `NC(=O)CN1CCCN(C(=O)c2ccn(-c3cccc(F)c3)n2)CC1`, -9.604%.

`COc1ccc(Br)c(C(=O)NCC2CCN(S(=O)(=O)C3CC3)CC2)c1`: the “Percent Effect” value is recorded as -3.942%.

Consider `CCn1c(N)nc2cc(C(=O)NCCc3ccccc3C)cnc21`, for which the “Percent Effect” value is given as -46.13%.

In the case of `O=C(c1ccc[nH]1)N1CCC(c2nccn2Cc2ccncc2)CC1`, the “Percent Effect” value is -12.18%. For `CSC(C)C(=O)NCCCc1cc(N)n(-c2ccccc2)n1` (centres undefined) the value was -59.95%; for `O=C(CSc1nc2c(cnn2CCO)c(=O)[nH]1)N1CCCCCC1`, -11.33%; for `Cc1cnn(CCC(=O)N2CCOC(c3nc(C(C)(C)C)n[nH]3)C2)c1` (centres undefined), -4.27%. As for `Cc1nc[nH]c1-c1nc2cc(S(=O)(=O)N3CCCC3)ccc2n1C`, the “Percent Effect” value is reported as -57.95%.

Regarding `CC(C)NC(=O)NCCCc1cc(N)n(-c2ccccc2)n1`, the “Percent Effect” value is recorded as -56.45%. For `Cc1cnn(CC2CCCN2Cc2coc(-c3cccs3)n2)c1` (centres undefined) the value was -52.32%; for `OCCC1CN(C2CCC2)CCN1C1CCCC1` (centres undefined), -52.06%.

As for `Cc1nccn1-c1cc(CNC(=O)c2ccccn2)ccn1`, the “Percent Effect” value is listed as -81.26%. As to `CCC1CN(Cc2ccccc2)CCN1Cc1nnc(C2CCC2)o1` (centres undefined), the “Percent Effect” value was 44.59%. On to `CCOc1ncccc1NC(=O)c1cc(C)c(C)s1`, for which the “Percent Effect” value is on record as -34.96%.

`Cc1cc(C)n(CC2CCCN2C(=O)c2ccc3[nH]nnc3c2)n1` (centres undefined): the “Percent Effect” value is reported as -6.294%. In the case of `O=C(NCc1ccoc1)Nc1ccc(CN2CCOC2=O)cc1` it was -8.505%. For `Cl.Cl.OC(CN1CCN(Cc2ccc(F)c(F)c2)CC1)C1CC1` (centres undefined) the value was -57.04%; for `Cc1cccc(C2(C(=O)NCCCn3cccn3)CC2)c1`, -39.94%; for `O=C1CCSCC(C(=O)N2CCCC2)N1` (centres undefined), -27.13%.

Turning to `CCc1nc(C2CCCN2CC(=O)Nc2c(C)nn(C)c2C)no1` (centres undefined), the “Percent Effect” value is recorded as -35.66%. For `Cc1nc(CN2CCc3cncnc3C2)oc1C` the value was -26.27%. In the case of `CC(=O)NC(C)CC(=O)NCc1cccnc1Oc1ccccc1C` (centres undefined) it was 11.59%; in that of `Cc1ccc(CNCC2CCc3nnc(C(C)C)n3C2)s1` (centres undefined), 21.49%. In the case of `CNC(=O)COc1ccc(CNCc2ccc(F)cc2F)cc1` it was -31.94%. For `CN(C)C(=O)N1CCN(C(=O)C(c2ccccc2F)N(C)C)CC1` (centres undefined), the “Percent Effect” value is listed as -1.181%. In the case of `O=C(CCc1ccsc1)N1CCC(Cc2ccc(CO)cc2)C1` (centres undefined) it was 6.677%; in that of `CCc1noc(C(C)N(C)CC(=O)Nc2ccc(C)cc2)n1` (centres undefined), -42.61%; in that of `O=C(CSCC1CC1)N1CCCC(c2nccn2Cc2ccncc2)C1` (centres undefined), 9.639%. For `Cc1n[nH]c(C2CN(CC(=O)NCCc3ccsc3)CCO2)n1` (centres undefined) the value was -117.4%; for `CCOCCC(=O)N1CCCC(c2ncc[nH]2)C1` (centres undefined), -61.02%.

With `CSc1ccccc1CN1CCn2nc(CNC(C)=O)cc2C1`, the “Percent Effect” value is -11.64%. With `Cn1c(Cn2cccn2)nnc1C1CCN(Cc2cccnc2N)CC1`, the “Percent Effect” value was -7.123%. As to `C[C@@H]1CN(C2(C(=O)N3CCOCC3)Cc3ccccc3C2)C[C@H](C)O1`, the “Percent Effect” value was 12.59%.

With `CC(c1ccccc1)n1c(SCC(=O)O)nnc1-c1ccccc1Cl` (centres undefined), the “Percent Effect” value is reported as 15.81%. For `C1CC1c1nsc(N2CCN(C3CC3)CC2)n1` the value was -51.78%. For `NC(=O)c1cccc(CC2CCN(C(=O)CO)C2)c1` (centres undefined) the value was -14.33%; for `CN(C)C(=O)CNC(=O)Nc1cccc(Cl)c1SC(F)F`, -29.89%. In the case of `CC(C)COC(C)C(=O)N1CCN(S(C)(=O)=O)CC1` (centres undefined) it was -53.15%; in that of `Cc1nc(C)n(CC2CCCN2CC(=O)NCc2ccco2)n1` (centres undefined), -29.3%. For `CCc1nc(CN2CCCN(Cc3cnn(C)c3)CC2)no1`, the “Percent Effect” value is reported as -82.4%.

`CC(Cn1cncn1)NCc1nncn1C1CCCCC1` (centres undefined): the “Percent Effect” value is given as 4.936%.

Take `Cn1ccnc1-c1cccc(NC(=O)NCCN2CCOCC2)c1`: the “Percent Effect” value is listed as -15.26%. For `O=C(NCC(Cc1cccc(F)c1)N1CCCC1=O)c1ccccc1` (centres undefined) the value was -23.79%.

With `CSCC(C)(O)CNC(=O)c1cc(Br)ccc1Cl` (centres undefined), the “Percent Effect” value is given as -27.72%. With `O=C(CSc1ncccn1)N1C[C@H]2CC[C@@H]1CN(Cc1ccncc1)C2`, the “Percent Effect” value is listed as -45.84%. For `CCc1nc(CN2CCCC(N(C)Cc3cnn(C)c3)C2)no1` (centres undefined) the value was -19.11%; for `COc1cccc(C(=O)N2CCCC(C(=O)CCc3ccccc3)C2)c1` (centres undefined), 20.31%; for `NC(=O)CSCCC(=O)N1CCCC1c1ccsc1` (centres undefined), 10.97%.

In the case of `Cc1cc(F)ccc1CNCCn1cccn1`, the “Percent Effect” value is recorded as -28.39%. Regarding `CC1CCN(S(=O)(=O)c2cccn(CC(=O)NC3CCCC3)c2=O)CC1`, the “Percent Effect” value is -45%. With `Cc1cnc2c(c1NCc1ccncc1)c(=O)n(C)c(=O)n2C`, the “Percent Effect” value was -90.48%. In the case of `CCS(=O)(=O)N(C)c1ccc(C(=O)N2CCCC(C)C2)cc1` (centres undefined) it was -22.28%; in that of `Cc1cccc(CNCc2c(C(C)C)nn(C)c2N2CCOCC2)n1`, -46%. For `COc1cc(CN2CCN(c3cccc(OC)c3)C(=O)C2)cc(OC)c1` the value was -47.17%; for `CCCc1cc(NC2CCc3ncnn3C2)n2ncnc2n1` (centres undefined), -6.308%; for `COc1ccc(OC)c(CNCCc2cc(F)cc3c2OCOC3)c1`, 89.81%.

Consider `CCCN1CCCn2nc(CNC(=O)CCc3scnc3C)cc2C1`, for which the “Percent Effect” value is given as 25.43%. For `COc1ccc(CNCCc2cc(F)cc3c2OCOC3)cc1O` the value was -21.14%; for `Cc1occc1C(=O)Nc1ccnc(OC2CCOC2)c1` (centres undefined), -74.39%. For `Cc1cc(N2CCN(Cc3nccn3C)CC2)cc(C)n1` the value was -24.56%. In the case of `CN(CCc1ccccc1)c1cnn(CC(=O)N2CCSCC2)c(=O)c1` it was -28.25%.
